In paper PMC6116705, “Design, synthesis, in vitro antiproliferative activity and apoptosis-inducing studies of 1-(3′,4′,5′-trimethoxyphenyl)-3-(2′-alkoxycarbonylindolyl)-2-propen-1-one derivatives obtained by a molecular hybridisation approach” (Journal of Enzyme Inhibition and Medicinal Chemistry, 2018):
Where “and” joins values, the source holds several entries; their conditions need not be identical. Equal entries are not always repeated. Where two headings read alike, the source gives them in different places.

Legend:
[1] = system: U-937/Bcl-2 cells; assay: Cell cycle phase distribution and apoptosis, flow cytometry (propidium iodide) and fluorescence microscopy, U-937/Bcl-2; assay type: cell-based, human
Protocol: Fluorescent microscopy and flow cytometric analysis of propidium iodide-stained cells were performed as described. Briefly, cells were harvested and fixed in 3% paraformaldehyde and incubated at room temperature for 10 min. The fixative was removed, and the cells were washed with PBS, resuspended in 30–50 μL of PBS containing 20 μg/mL bis-benzimide trihydrochloride (Hoechst 33258) and incubated at room temperature for 15 min. Stained nuclei were visualized using a Zeiss fluorescence microscope.
Flow cytometric analysis was carried out using a BD FACSVerse™ cytometer (BD Biosciences, San Jose, CA, USA).

[2] = system: human promyelocytic leukemia (HL-60) cells; assay: Antiproliferative assay, cell counting (Coulter Counter), HL-60; assay type: cell-based; details: Homo sapiens; HL-60, 72–96 h; read-out: IC50, inhibition of proliferation
Protocol: (§1) Human cervix carcinoma (HeLa), human colon carcinoma (HT29), human breast carcinoma (MCF-7) and human lymphoma (HL-60) cells (3–5 × 10^4 cells) and a serial (five-fold) dilution of the test compounds were added to a 96-well microtiter plate. The cells were incubated for 72–96 h (depending on the tumor cell line) at 37 °C in a humidified 5% CO2 atmosphere. At the end of the incubation period, the cells were counted in a Coulter Counter (Coulter Electronics Ltd, Harpenden Herts, UK). […] The IC50 values represent the average (±standard deviation) of at least two to four independent experiments.

[3] = system: U-937 cells overexpressing human Bcl-2 (U-937/Bcl-2); assay: MTT cytotoxicity assay, U-937/Bcl-2; assay type: cell-based; details: U-937/Bcl-2, MTT, read-out: IC50, inhibition of cell growth
Protocol: U-937 (human myeloid leukaemia) cells from DSMZ (German Collection of Microorganisms and Cell Cultures, Braunschweig, Germany) and U-937 cells overexpressing human Bcl-2 protein (designated U-937/Bcl-2, donated by Dr Jacqueline Bréard, INSERM U749, Faculté de Pharmacie Paris-Sud., Châtenay-Malabry, France) were cultured in RPMI-1640 medium containing 10% (v/v) heat-inactivated foetal bovine serum, 100 μg/mL streptomycin and 100 U/mL penicillin, incubated at 37 °C in a humidified atmosphere containing 5% CO2 as described. The functioning of U-937/Bcl-2 cells was tested using the cytotoxic agent 1-β-D-arabino-furanosylcytosine as previously described. Human peripheral blood mononuclear cells (PBMC) were isolated from heparin-anticoagulated blood of healthy volunteers by centrifugation with Ficoll-Paque Plus (GE Healthcare Bio-Sciences AB, Uppsala, Sweden). PBMC were also stimulated with phytohemagglutinin (2 μg/mL) for 48 h before the experimental treatment. The trypan blue dye exclusion method was used for counting the living/dead cells by a hematocytometer with 95% viability in all experiments. The cytotoxicity of compounds was evaluated by the colorimetric 3-(4,5-dimethyl-2-thiazolyl-)-2,5-diphenyl-2H-tetrazolium bromide (MTT) assay as previously described. Briefly, 5 × 10^3 exponentially growing cells were seeded in 96-well microculture plates with increasing concentrations of compounds for 72 h. After the addition of MTT (0.5 mg/mL), cells were incubated at 37 °C for 4 h. Sodium dodecyl sulphate (10% w/v) in 0.05 M HCl was added to the wells and then incubated at room temperature overnight in the dark. Absorbance was measured at 570 nm. […] Values are mean ± SE from at least three independent experiments, each performed in triplicate. Compounds were dissolved in DMSO and kept in the dark at 25 °C.

[4] = system: human cervix carcinoma (HeLa) cells; assay: Antiproliferative assay, cell counting (Coulter Counter), HeLa; assay type: cell-based; details: 72–96 h, read-out: IC50, inhibition of proliferation
Protocol: as §1

[5] = system: human breast adenocarcinoma (MCF-7) cells; assay: Antiproliferative assay, cell counting (Coulter Counter), MCF-7; assay type: cell-based; details: for fold more potent than CA-4: MCF-7 cells, ratio of IC50 values
Protocol: as §1

Row | Compound | % G1 ([1]; U-937/Bcl-2, 24 h, 0.3 µM) | % G2-M ([1]; U-937/Bcl-2, 24 h, 0.3 µM) | % S ([1]; U-937/Bcl-2, 24 h, 0.3 µM) | % Sub-G1 ([1]; U-937/Bcl-2, 24 h, 0.3 µM) | % G1 ([1]; U-937/Bcl-2, 24 h, 1 µM) | % G2-M ([1]; U-937/Bcl-2, 24 h, 1 µM) | % S ([1]; U-937/Bcl-2, 24 h, 1 µM) | % Sub-G1 ([1]; U-937/Bcl-2, 24 h, 1 µM) | % G1 ([1]; U-937/Bcl-2, 48 h, 0.3 µM) | % G2-M ([1]; U-937/Bcl-2, 48 h, 0.3 µM) | % S ([1]; U-937/Bcl-2, 48 h, 0.3 µM) | % Sub-G1 ([1]; U-937/Bcl-2, 48 h, 0.3 µM) | % G1 ([1]; U-937/Bcl-2, 48 h, 1 µM) | % G2-M ([1]; U-937/Bcl-2, 48 h, 1 µM) | % S ([1]; U-937/Bcl-2, 48 h, 1 µM) | % Sub-G1 ([1]; U-937/Bcl-2, 48 h, 1 µM) | % G1 ([1]; U-937/Bcl-2, 72 h, 0.3 µM) | % G2-M ([1]; U-937/Bcl-2, 72 h, 0.3 µM) | % S ([1]; U-937/Bcl-2, 72 h, 0.3 µM) | % Sub-G1 ([1]; U-937/Bcl-2, 72 h, 0.3 µM) | also measured
1 | CCOC(=O)c1[nH]c2ccc(OC)cc2c1/C=C/C(=O)c1cc(OC)c(OC)c(OC)c1 [Compound 9d, (E)-Ethyl 5-methoxy-3-(3-oxo-3-(3,4,5-trimethoxyphenyl)prop-1-en-1-yl)-1H-indole-2-carboxylate] | 41.0 ± 1.3% | 29.7 ± 0.2% | 25.1 ± 1.1% | 2.8 ± 0.2% | 29.3 ± 0.3 % | 35.7 ± 0.2 % | 28.7 ± 0.5% | 4.6 ± 0.3% | 49.1 ± 0.4% | 18.9 ± 0.7% | 26.7 ± 2.2% | 4.4 ± 1.0% | 33.2 ± 2.3 % | 31.0 ± 2.8 % | 27.4 ± 0.2% | 6.5 ± 0.5% | 53.6 ± 1.2% | 20.0 ± 0.8% | 21.8 ± 1.4% | 3.1 ± 0.9% | % G1 ([1]; U-937/Bcl-2, 72 h, 1 µM): 41.6 ± 2.5 %; % G2-M ([1]; U-937/Bcl-2, 72 h, 1 µM): 24.8 ± 2.6%; % S ([1]; U-937/Bcl-2, 72 h, 1 µM): 24.0 ± 1.8%; % Sub-G1 ([1]; U-937/Bcl-2, 72 h, 1 µM): 7.5 ± 1.2%; apoptosis induction (fluorescence microscopy and flow cytometry) ([1]; U-937/Bcl-2 cells): only induced low apoptosis; IC50 [2]: 3400 ± 1000 nM; IC50 ([3]; Homo sapiens, U-937, 72 h): 700 ± 200 nM
2 | COC(=O)c1[nH]c2cc(OC)ccc2c1/C=C/C(=O)c1cc(OC)c(OC)c(OC)c1 [Compound 9e, (E)-Methyl 6-methoxy-3-(3-oxo-3-(3,4,5-trimethoxyphenyl)prop-1-en-1-yl)-1H-indole-2-carboxylate] | 24.7 ± 0.5 % | 40.1 ± 1.3 % | 23.2 ± 0.2% | 9.8 ± 0.5 % | 17.4 ± 0.2 % | 47.3 ± 1.2 % | 18.1 ± 1.7 % | 15% and 14.7 ± 0.7 % | 23.0 ± 0.7 % | 34.3 ± 0.5 % | 22.4 ± 0.2% | 14.6 ± 0.4 % | 13.0 ± 0.9 % | 33.2 ± 0.9 % | 15.4 ± 0.1 % | 28% and 28.0 ± 0.7 % | 22.4 ± 0.4 % | 31.3 ± 1.3 % | 21.8 ± 0.8% | 17.6 ± 0.5 % | fold increase in the percentage of apoptotic (hypodiploid) cells ([1]; U-937/Bcl-2, 1 μM, 72 h, versus control): ~20 fold; % G1 ([1]; U-937/Bcl-2, 72 h, 1 µM): 12.8 ± 0.5 %; % G2-M ([1]; U-937/Bcl-2, 72 h, 1 µM): 23.1 ± 2.2%; % S ([1]; U-937/Bcl-2, 72 h, 1 µM): 16.0 ± 0.7%; % Sub-G1 ([1]; U-937/Bcl-2, 72 h, 1 µM): 36% and 36.1 ± 3.3 %; IC50 ([4]; Homo sapiens): 370 ± 180 nM; IC50 ([5]; Homo sapiens, MCF7, MCF-7, 72–96 h, read-out: IC50, inhibition of proliferation): 170 ± 30 nM; fold more potent than CA-4 [5]: 1.5–2 fold; IC50 [2]: 18000 ± 14000 nM; IC50 ([3]; Homo sapiens, U-937, 72 h): ~1000 nM; IC50 ([3]; 72 h): 1100 ± 1000 nM
3 | CCOC(=O)c1[nH]c2cc(OC)ccc2c1/C=C/C(=O)c1cc(OC)c(OC)c(OC)c1 [Compound 9f, (E)-Ethyl 6-methoxy-3-(3-oxo-3-(3,4,5-trimethoxyphenyl)prop-1-en-1-yl)-1H-indole-2-carboxylate] | 26.0 ± 0.9 % | 41.1 ± 0.4 % | 25.2 ± 0.3% | 6.2 ± 0.9% | 17.6 ± 0.6 % | 41.0 ± 2.3 % | 18.1 ± 0.1 % | 20.6 ± 1.6 % | 27.4 ± 0.8 % | 31.6 ± 0.3 % | 26.3 ± 0.4% | 11.1 ± 0.1 % | 16.0 ± 0.0 % | 28.4 ± 1.8 % | 16.5 ± 1.0 % | 30.2 ± 3.3 % | 30.3 ± 2.9 % | 29.4 ± 2.0 % | 23.8 ± 0.7% | 11.8 ± 0.5 % | % G1 ([1]; U-937/Bcl-2, 72 h, 1 µM): 14.0 ± 0.6 %; % G2-M ([1]; U-937/Bcl-2, 72 h, 1 µM): 22.7 ± 0.2%; % S ([1]; U-937/Bcl-2, 72 h, 1 µM): 17.1 ± 1.4%; % Sub-G1 ([1]; U-937/Bcl-2, 72 h, 1 µM): 37.7 ± 1.5 %; IC50 [4]: 840 ± 390 nM; IC50 ([4]; Homo sapiens): < 1000 nM; fold more potent than CA-4 [5]: 1.5–2 fold; IC50 [2]: 5200 ± 2200 nM; IC50 ([3]; Homo sapiens, U-937, 72 h): 1000 ± 800 nM
